Structures are written as SMILES. Values after ≈ are worked out from the molar mass of the structure shown.

The values below come from patent US5688767A, “Treatment of endotoxin-associated disorders with cationic peptides” (priority 1996, dated 1997).

In data set [1] the test system is Acinetobacter calcoaceticus 8193. Nature of the data set: MIC against Gram-negative bacteria. It is filed as cell-based. The source says: (§1) Bacteria included the Bort strain of E. coli (Bortolussi, et al., Inf. Immun., 25:293, 1979) that was originally derived from a case of neonatal meningitis, and which is therefore considered a relevant pathogenic strain to study, and the 0111:B4 strain of E. coli (kindly provided by Dr. D. Morrison) which is a standard source of endotoxin. (Kelly, et al., Inf. Immun., 59:4491, 1991). In addition, P. aeruginosa PA01 strain H103, P. aeruginosa M2, P. aeruginosa K799, Eschericha coli UB 1005, Enterobacter cloacae 218S, Salmonella typhimurium MS7953s, Klebsiella pneumoniae ATCC 13883, Xanthomonas maltophilia ATCC 13637, and Acinetobacter calcoacetious 8193 were employed. LPS was obtained from E. coli Bort by the technique of Westphal and Jann, (Westphal, et al., Acad. Press, Inc. NY., 5:83) and from P. aeruginosa H103 by the method of Darveau and Hancock, (Darveau, et al., J. Bacteriol, 155:831, […]). E. coli 0111:B4 LPS was purchased from Sigma.

The test system of data set [2] is Xanthomonas maltophilia ATCC 13637. Put plainly: MIC against Gram-negative bacteria. Format: cell-based.
From the text: as §1

In data set [3] the test system is Klebsiella pneumoniae ATCC 13883. Nature of the data set: MIC against Gram-negative bacteria. It is filed as cell-based.
From the text: as §1

The next data set has as its system S. typhimurium. Put plainly: microbe, parasite or virus in culture. Format: cell-based, Salmonella typhimurium. The procedure: The minimum inhibitory concentrations of (MIC) of CEME, CEMA and melittin were determined for a number of different bacteria (Table 2). Briefly, cells were grown overnight at 37° C. in LB-S (Luria broth without any salt supplement) and diluted one in 10,000 in the same medium to give concentrations of about 10^4 to 10^5 CFU/ml. The broth dilutions were set up in a 96 well microtiter plate by putting 200 μl of LB-S containing the initial concentration of antibiotic or compound in column 1 and 100 μl of the same medium in columns 2-12. The compounds were diluted by taking 100 μl of broth from column 1 and mixing it with column 2, resulting in a one in two dilution. This was continued to column 10. Finally, 10 μl of bacteria were pipetted into columns 1-11, and the plates incubated overnight at 37° C. The next day the plates were scored for growth in the wells, and the MIC determined.
as §1

Another data set relates to RAW 264.7 cells. Nature of the data set: RAW cell viability by Trypan blue exclusion. Format: cell-based, murine. Conditions: up to 50 μg.
Data set [4] has as its system LPS-induced circulating TNF. Put plainly: Circulating TNF response to LPS in galactosamine-sensitized mice. It is filed as in vivo. As to the method: With a challenge dose of 10 μg or E. coli 0111:B4 LPS, 100% of control mice (i.e., no cationic peptide) were killed. […] Consistent with its improved ability to bind LPS, CEMA was more protective resulting in 60%, 75%, and 78% survival when given to mice at doses of 50 μg, 100 μg, and 200 μg respectively. […] Thirty minutes later, the mice were sacrificed and the blood was taken and centrifuged to separate the serum which was used in the cell cytotoxic L929 assay. […] Such suppression of TNF levels in the animals injected with Dgal, CEMA, and LPS was maintained for up to 2 hours.
TNF was measured in cell culture supernatants and mouse serum on the basis of cytoxicity for L929 fibroblast cell. […] TNF activity was expressed in units as the reciprocal of the dilution of TNF that caused 50% cytotoxicity of L929 cells, as computed using the ELISA+program (Meddata, Inc., New York, N.Y.). In our hands one unit of TNF corresponded to 62.5 pg/ml of recombinant murine TNF (Genzyme Corp.).
Mice are naturally resistant to LPS. […] Endotoxic shock was induced by intraperitoneal injection of 10 or 20 μg of E. coli 0111:B4 LPS in phosphate-buffered saline (PBS), pH 7.2 into galactosamine-sensitized 8-10 week old female CD-1 mice (Galanos, C., supra; Freudenberg, M. A., Inf. Immun., 51:891, 1986). In experiments involving peptides, 50-200 μg in 100 μl sterile water injected at separate intraperitoneal sites immediately before or after LPS injection. In survival experiments, survival was monitored at 24 to 48 hours post injection. In experiments measuring TNF, blood was withdrawn by cardiac puncture at timed intervals up to 8 hours after the injections and allowed to clot prior to measurement of TNF in the serum.
To examine if the peptides were exerting their effects in animals by suppressing TNF induction, TNF was followed in response to injection of 10 μg of E. Coli 0111:B4 into galactosamine treated CD-1 mice. […] At the time points shown, blood was taken and TNF measured in the L929 cytotoxicity assay. […]

Regarding `CC[C@H](C)[C@H](NC(=O)CNC(=O)[C@@H](NC(=O)[C@H](CCCCN)NC(=O)[C@H](CCCCN)NC(=O)[C@H](Cc1ccccc1)NC(=O)[C@H](CC(C)C)NC(=O)[C@H](CCCCN)NC(=O)[C@H](Cc1c[nH]c2ccccc12)NC(=O)[C@@H](N)CCCCN)[C@@H](C)CC)C(=O)NCC(=O)N[C@@H](C)C(=O)N[C@H](C(=O)N[C@@H](CC(C)C)C(=O)N[C@@H](CCCCN)C(=O)N[C@H](C(=O)N[C@@H](CC(C)C)C(=O)N[C@H](C(=O)N[C@H](C(=O)NCC(=O)N[C@@H](CC(C)C)C(=O)N1CCC[C@H]1C(=O)N[C@@H](C)C(=O)N[C@@H](CC(C)C)C(=O)N[C@@H](CCCCN)C(=O)N[C@@H](CC(C)C)C(=O)N[C@H](C(=O)N[C@@H](CCCCN)C(=O)O)[C@@H](C)O)[C@@H](C)O)[C@@H](C)O)C(C)C)C(C)C` [CEMA], the MIC in data set [1] is 1 µg/mL (≈ 0.326 µM); in data set [2], 12 µg/mL (≈ 3.91 µM); in data set [3] it was 12 µg/mL (≈ 3.91 µM); against S. typhimurium (Salmonella typhimurium MS7953s) it was 4 µg/mL (≈ 1.3 µM); with S. typhimurium (strain C587, Parent of C590), 5.6 µg/mL (≈ 1.83 µM); against S. typhimurium (strain C590, Defensin sensitive) it was 1.4 µg/mL (≈ 0.457 µM). Moreover, the RAW cell viability entry with RAW 264.7 cells was “no apparent decrease”. Besides, in data set [4] (200 μg CEMA injected immediately after 10 μg E. coli 0111:B4 LPS), the “reduction of serum TNF levels” value stood at 89%. Further, the “blood levels of TNF” value in data set [4] (200 μg CEMA with 10 μg LPS and Dgal, at 30 minutes) is recorded as 11-16 U/ml. Also, in data set [4] (animals injected with Dgal, CEMA, and LPS), the “duration of suppression of TNF levels” value is on record as “up to 2 hours”.
